How the values were obtained:
[1] = test system: A549 human Non-Small Cell Lung Cancer cells; assay: Hoechst 33342 dye accumulation by flow cytometry (MFI); format: cell-based; conditions: 3 μM 4 hours, then Hoechst 33342 1 hour
Protocol: (§1) Hoechst 33342 is a nuclear dye commonly used to quantify drug efflux dynamics and drug accumulation in cells. […] Cells were then collected, and the MFI was determined by flow cytometry.

[2] = test system: U87 human glioma cells; assay: as above; format: cell-based; conditions: 3 μM 4 hours, then Hoechst 33342 1 hour
Protocol: as §1

[3] = test system: U87 human glioma cancer cells; assay: Presto Blue cell survival, RUVIDAR with or without N-acetylcysteine; format: cell-based; conditions: overnight
Protocol: U87 human glioma cancer cells were plated overnight, then treated with different doses of RUVIDAR in the presence or absence of N-acetylcysteine, a known ROS scavenger to quench the increase in ROS production. Cells were incubated overnight, and cell survival was analyzed using Presto Blue assay.

[4] = test system: human Herpes Simplex 1 (HSV-1) virus; assay: HSV-1 virus yield in A549 host cells by plaque forming assay, with Bliss synergy score; format: cell-based; conditions: for HSV-1 yield suppression, single agent: A549 host cells, MOI 0.3, three days, 50 nM RUVIDAR or RUTHERRIN, 1 μM Acyclovir, 0.2% DMSO
Protocol: A549 human lung cancer cells are used as a host for virus growth, treatment, and later survival quantification. A549 cells are plated overnight, then incubated for 4 hours with or without 50 nM RUVIDAR or RUTHERRIN, with or without 1 μM Acyclovir or 0.2% DMSO (concentration non-toxic for the host cells). After the initial incubation of the host cells with the compounds, the cells are infected with the human Herpes Simplex 1 (HSV-1) virus at the multiplicity of infection (MOI)=0.3 and further incubated for three days (the mentioned compounds are still present in the culture media over the full course of incubation). After that, supernatant is harvested, centrifuged to remove debris, and the yield of infectious virus is determined by plaque forming assay (PFA) using supernatant for the host cells infection. The formed plaques are counted, and virus titer is calculated as Plaque Forming Units/mL=(Plaques number*Dilution)/Volume of Virus Inoculum. Titers normalized for control titer (untreated HSV-1 and host cells) produce relative virus yield (which is equivalent to inhibition rate).
The data are presented as virus yield normalized to Control. To estimate synergistic effect of two combined compounds, synergy Bliss score was calculated, as the difference between the actual inhibiting effect of the combination and the predicted inhibiting effect under “no synergy” assumption (Bliss score): Synergy score=Inhibition_RateCompound1 & Compound2−(Inhibition_RateCompound1+Inhibition_RateCompound2−Inhibition_RateCompound1* Inhibition_RateCompound2).

[5] = test system: CD47; assay: CD47 expression by flow cytometry in T24 cells; format: cell-based, human; conditions: 3 μM for 2 days, MFI normalized to untreated cells
Sequence of CD47 (Q08722 19-323): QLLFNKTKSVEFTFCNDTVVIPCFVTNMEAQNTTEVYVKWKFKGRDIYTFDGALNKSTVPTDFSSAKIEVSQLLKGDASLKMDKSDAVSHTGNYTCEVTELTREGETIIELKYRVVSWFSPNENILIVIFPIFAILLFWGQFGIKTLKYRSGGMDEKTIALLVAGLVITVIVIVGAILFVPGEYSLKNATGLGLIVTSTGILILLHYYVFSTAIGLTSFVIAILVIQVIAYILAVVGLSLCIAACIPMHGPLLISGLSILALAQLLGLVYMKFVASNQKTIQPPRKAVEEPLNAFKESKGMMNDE
Protocol: (§2) In the tests whose results are shown in FIGS. 8A and 8B, T24 human bladder cancer cells or U87 human glioma cells were treated with 3 μM of RUVIDAR or RUTHERRIN for 2 days, and cells were collected and stained with fluorescent-labelled antibodies to CD47 and PD-L1 and analyzed by flow cytometry. MFI was normalized to control untreated cells and expressed as percentage of change.

[6] = test system: PD-L1; assay: PD-L1 expression by flow cytometry in T24 cells; format: cell-based, human; conditions: 3 μM for 2 days, MFI normalized to untreated cells
Sequence of PD-L1 (Q9NZQ7 19-290): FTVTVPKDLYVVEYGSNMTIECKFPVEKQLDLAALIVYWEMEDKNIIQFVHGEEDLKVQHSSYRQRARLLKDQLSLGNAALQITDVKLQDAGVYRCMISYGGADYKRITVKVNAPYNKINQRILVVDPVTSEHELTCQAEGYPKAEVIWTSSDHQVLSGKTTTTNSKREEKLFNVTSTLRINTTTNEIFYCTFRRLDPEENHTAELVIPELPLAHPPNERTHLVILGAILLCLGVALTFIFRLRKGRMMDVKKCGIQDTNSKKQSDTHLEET
Protocol: as §2

[7] = test system: CD47; assay: CD47 expression in A549 cells, RUVIDAR or RUTHERRIN with or without ionizing radiation; format: cell-based, human; conditions: 3 μM
Protocol: In the tests whose results are shown in FIGS. 8C and 8D, U87 human glioma cells or A549 lung cancer cells were treated with 3 μM of RUTHERRIN or RUVIDAR prior to drug activation by 530 nm laser light (photodynamic therapy, PDT) or ionizing radiation. Cells were then collected and stained with fluorescent antibody to CD47 and analyzed by flow cytometry. MFI was normalized to control untreated cells and expressed as percentage of change.

[8] = 50 nM RUVIDAR or RUTHERRIN plus 1 μM Acyclovir
[9] = 50 nM RUVIDAR or RUTHERRIN plus 0.2% DMSO

Q: Which “Hoechst 33342 dye accumulation (MFI)” value [1] does the source give for “Ru(4,4′-dimethyl-2,2′-bipyridine)2(2-(2′,2″:5″,2″-terthiophene)-imidazo[4,5-f][1,10] phenanthroline) [RUVIDAR]” here?
A: The value was “increases dye accumulation inside the cells”.

Q: What about the “Hoechst 33342 dye accumulation (MFI)” value [2] of the same molecule?
A: Its value is “increases dye accumulation inside the cells”.

Q: What about the cell kill percent ([3]; RUVIDAR only, different doses) of the same molecule?
A: The cell kill percent was “dose-dependent increase in cell kill”.

Q: What about the “cell kill percent in the presence of N-acetylcysteine” value ([3]; RUVIDAR plus ROS scavenger N-acetylcysteine) of the same molecule?
A: Its value is “significantly reduced”.

Q: And the “HSV-1 yield suppression, combined with Acyclovir” value [4, 8]?
A: Its value is “significantly potentiated”.

Q: What about the “synergy score (Bliss), combined with Acyclovir” value [4, 8] of the same molecule?
A: Its value is 0.040±0.013.

Q: What about the “HSV-1 yield suppression, combined with DMSO” value [4, 9] of the same molecule?
A: Its value is “significantly potentiated”.

Q: And the “synergy score (Bliss), combined with DMSO” value [4, 9]?
A: The value was 0.030±0.010.

Q: And the “HSV-1 yield suppression, single agent” value [4]?
A: Its value is “anti-viral effect to various degrees”.

Q: And the “percentage change in expression of CD47” value [5]?
A: Its value is “significantly reduced”.

Q: And the “percentage change in expression of PD-L1” value [6]?
A: Its value is “significantly reduced”.

Q: And the “percentage change in CD47 expression, drug alone” value ([7]; no radiation)?
A: Its value is “significantly reduced”.

Q: What about the “percentage change in CD47 expression, with ionizing radiation” value ([7]; then ionizing radiation) of the same molecule?
A: Its value is “more significant reduction”.

Q: Which “HSV-1 yield suppression, single agent” value [4] does the source give for C[S+](C)[O-] [DMSO] here?
A: The value was “anti-viral effect to various degrees”.

Q: Which “HSV-1 yield suppression, single agent” value [4] does the source give for Nc1nc2c(ncn2COCCO)c(=O)[nH]1 [Acyclovir, reference compound] here?
A: The value was “anti-viral effect to various degrees”.

— patent publication US20250375458A1, “COMPOSITIONS AND METHODS TO COMBAT MULTIDRUG-RESISTANT AND […]-CELL-MEDIATED, O[…] INFECTIOUS DISEASES” (Theralase Technologies, Inc., priority 2024, published 2025)
